{"source": "patent US11219625B2", "about": "“Inhibitors of N-linked glycosylation and methods using same” (YALE UNIVERSITY, priority 2015, dated 2022)", "format_in_all_cases": "cell-based", "key": {"[1]": {"system": "FGFR1", "experiment": "Western blot of FGFR phosphorylation, H1581 and H2444 cells", "conditions": "H1581 and H2444, FIG. 4F", "method": "FIGS. 4A-4H illustrate the finding that NGI-1 blocks RTK driven proliferation. FIG. 4A illustrates western blot analysis of EGFR phosphorylation (Y1173) and gel mobility in PC9 (EGFR-mutant) and A549 (k-ras mutant) NSCLC cells after 10 μM NGI-1 treatment for 24 h. […] Actin expression was used as a control for protein loading. FIG. 4B illustrates MTT assays results of PC9 following treatment with 10 μM NGI-1 or 1 μM tunicamycin for a total of 5 d. Relative proliferation id reported in fold increase from day 0. FIG. 4C illustrates MTT assays results of A549 following treatment with 10 μM NGI-1 or 1 μM tunicamycin for a total of 5 d. Relative proliferation id reported in fold increase from day 0. FIG. 4D illustrates protein phosphorylation profiles of PC9 cells analyzed by phospho-protein array to assess the response of PC9 to 10 μM NGI-1 for 24 h. FIG. 4E illustrates protein phosphorylation profiles of A549 cells analyzed by phospho-protein array to assess the response of A549 to 10 μM NGI-1 for 24 h. FIG. 4F illustrates western blot analysis of FGFR phosphorylation (Y653/654) and gel mobility for H1581 (TKI sensitive) and H2444 (TKI insensitive) NSCLC cell lines. […] FIG. 4G illustrates MTT assays for H1581 cells treated with 10 μM NGI-1 for 5 d. Asterisk (***) indicates a significant difference p<0.001 for MTT. FIG. 4H illustrates MTT assays for H2444 cells treated with 10 μM NGI-1 for 5 d. […]"}, "[2]": {"system": "H2444 cells", "experiment": "MTT proliferation assay, H2444", "conditions": "H2444, 10 μM NGI-1, 5 d", "method": "(§1) FIGS. 4A-4H illustrate the finding that NGI-1 blocks RTK driven proliferation. FIG. 4A illustrates western blot analysis of EGFR phosphorylation (Y1173) and gel mobility in PC9 (EGFR-mutant) and A549 (k-ras mutant) NSCLC cells after 10 μM NGI-1 treatment for 24 h. […] Actin expression was used as a control for protein loading. FIG. 4B illustrates MTT assays results of PC9 following treatment with 10 μM NGI-1 or 1 μM tunicamycin for a total of 5 d. Relative proliferation id reported in fold increase from day 0. FIG. 4C illustrates MTT assays results of A549 following treatment with 10 μM NGI-1 or 1 μM tunicamycin for a total of 5 d. Relative proliferation id reported in fold increase from day 0. FIG. 4D illustrates protein phosphorylation profiles of PC9 cells analyzed by phospho-protein array to assess the response of PC9 to 10 μM NGI-1 for 24 h. FIG. 4E illustrates protein phosphorylation profiles of A549 cells analyzed by phospho-protein array to assess the response of A549 to 10 μM NGI-1 for 24 h. […]\n(§2) Growth rates were determined by CellTiter 96 NonRadioactive Cell Proliferation Assay (Promega; Madison, Wis. USA) according to the manufacturer's directions. […] Cell numbers were estimated after 0, 3, and 5 days by adding MTT [(3-(4,5-Dimethylthiazol-2-yl)-2,5-diphenyltetrazolium bromide] reagent to the wells 4 hours before taking the spectrophotometric reading (absorbance at 570 nm)."}, "[3]": {"experiment": "Celltiter Glo viability assay, HEK293", "conditions": "human, HEK293 cells; HEK293, 72 h of compound exposure; read-out: Cytotoxicity Assay Mean EC50", "excerpt": "(§3) The HTS approach using the bioluminescent N-linked glycosylation reporter (CCR 2011) in D54-ERLucT and D54-LucT cells has been previously described (Bennett, et al., Transl Oncol 2013, 6, 382-391). Briefly, the primary cell-based screen detects site occupancy of NLG sequons using a modified luciferase protein translated into the ER. […] The methodology for the primary (D54-ERlucT), secondary (D54-LucT), and tertiary (luciferase inhibition) screens as well and toxicity assays with CelltitreGlo are deposited in Pubchem (AID 588693).\n(§4) To better understand the connection between structure and activity, analogs were prepared and tested in the D54-ERLucT cell based assay for inhibition of N-linked glycosylation (FIG. 1B). The assay was used to estimate and compare AC40 values among analogs and to guide the design of improved compounds that inhibited N-linked glycosylation. This effort generated 36 unique compounds with modifications to the amine component of the sulfonamide functionality (red), the pyrrolidine moiety (blue) or the methylaminothiazole group (green). Generally, incorporation of larger sulfonamides (i.e., larger secondary amines appended to the sulphone) was not well tolerated, resulting in erosion of potency (7 analogs). However, steric interactions could be mitigated by the introduction of a hydrogen bond accepting oxygen in a larger cyclic amine. Thus, morpholine was determined to be an acceptable surrogate for the dimethylamine component of the sulfonamide (FIGS. 1A-1D). The pyrrolidine group (blue) was replaced with various alkyl, cycloalkyl, and amine groups (7 compounds). The aminothiazole moiety was derivatized most extensively of all three regions (green highlighted area, 22 analogs). […] Analogs with the highest potency in the luciferase assay were retested with western blot analysis to insure that measurements of luciferase activation corresponded to loss of N-linked glycosylation."}, "[4]": {"system": "HEK293 cells", "experiment": "Celltiter Glo viability assay, HEK293", "conditions": "HEK293 EC50 over NLG AC40", "excerpt": "as §3, §4"}, "[5]": {"system": "H1581 cells", "experiment": "MTT proliferation assay, H1581", "conditions": "H1581, 10 μM NGI-1, 5 d", "method": "as §1, §2"}, "[6]": {"system": "HCC827 cells", "experiment": "Cell cycle distribution by flow cytometry, HCC827", "conditions": "HCC827, NGI-1 24 h, p<0.01", "method": "FIGS. 7A-7D illustrate EGFR kinase domain mutant cell lines growth inhibition and cell cycle arrest response to NGI-1. FIG. 7A illustrates MTT assays to determine the effects of NGI-1 on growth of H3255 cells. FIG. 7B illustrates MIT assays to determine the effects of NGI-1 on growth of HCC827 cells. EGFR kinase domain mutant cell lines H3255 and HCC827 cells were untreated or treated with 10 μM NGI-1 for 5 d. […] FIG. 7C illustrates cell cycle distribution of H3255 after 24 h NGI-1 treatment for 24 h determined by flow cytometry. FIG. 7D illustrates cell cycle distribution of HCC827 after 24 h NGI-1 treatment for 24 h determined by flow cytometry.\nFor the assessment of cell cycle distribution, 1×10^6 cells were collected, washed once with ice-cold PBS and fixed in ice-cold 70% ethanol overnight at −20° C. Thereafter, cells were washed twice with PBS and incubated for 30 min at room temperature in 200 μL of Guava Cell Cycle Reagent (Guava Technologies). Cytofluorometric acquisitions were performed on a LSRII cytometer (BD Biosciences). First-line analysis was performed with Flow Jo software, upon gating on the events characterized by normal forward and side scatter parameters and discrimination of doublets in a FSC-A vs. FSC-H bivariate plot. Approximately 30,000 cells were analyzed per experiment, and the mean value was obtained from 3 independent assays."}}}
{"smiles": "Cc1cnc(NC(=O)c2cc(S(=O)(=O)N(C)C)ccc2N2CCCC2)s1", "note": "[NGI-1, 5-(N,N-Dimethylsulfamoyl)-N-(5-methylthiazol-2-yl)-2-(pyrrolidin-1-yl)benzamide]", "values": [{"measurement": "FGFR1 phosphorylation", "setting": "[1]", "value": "blocked FGFR1 phosphorylation"}, {"measurement": "effect on proliferation, MTT", "setting": "[2]", "value": "insensitive to NGI-1"}, {"measurement": "EC50 at 72 h", "setting": "[3]", "value": "> 30", "unit": "µM"}, {"measurement": "Selectivity (EC50/AC40)", "setting": "[4]", "value": ">172"}, {"measurement": "effect on proliferation, MTT", "setting": "[5]", "value": "blocked proliferation of the H1581 cell line"}, {"measurement": "cell cycle distribution", "setting": "[6]", "value": "undergo G1 arrest"}]}
